Experimental data reported in patent US9102675B2, “3-Cyanoaryl-1H-pyrrolo[2,3-B] pyridine derivatives” (MERCK PATENT GMBH, priority 2011, dated 2015).

What was measured:
[1] = biological target: T1, TANK binding kinase (TBK1) (Homo sapiens, UniProt Q9UHD2); experiment: TBK1 enzyme assay (384-well flashplate kinase assay); assay type: biochemical; details: 10 μM ATP, 0.6 nM TBK1
T1 sequence (Q9UHD2 1-729): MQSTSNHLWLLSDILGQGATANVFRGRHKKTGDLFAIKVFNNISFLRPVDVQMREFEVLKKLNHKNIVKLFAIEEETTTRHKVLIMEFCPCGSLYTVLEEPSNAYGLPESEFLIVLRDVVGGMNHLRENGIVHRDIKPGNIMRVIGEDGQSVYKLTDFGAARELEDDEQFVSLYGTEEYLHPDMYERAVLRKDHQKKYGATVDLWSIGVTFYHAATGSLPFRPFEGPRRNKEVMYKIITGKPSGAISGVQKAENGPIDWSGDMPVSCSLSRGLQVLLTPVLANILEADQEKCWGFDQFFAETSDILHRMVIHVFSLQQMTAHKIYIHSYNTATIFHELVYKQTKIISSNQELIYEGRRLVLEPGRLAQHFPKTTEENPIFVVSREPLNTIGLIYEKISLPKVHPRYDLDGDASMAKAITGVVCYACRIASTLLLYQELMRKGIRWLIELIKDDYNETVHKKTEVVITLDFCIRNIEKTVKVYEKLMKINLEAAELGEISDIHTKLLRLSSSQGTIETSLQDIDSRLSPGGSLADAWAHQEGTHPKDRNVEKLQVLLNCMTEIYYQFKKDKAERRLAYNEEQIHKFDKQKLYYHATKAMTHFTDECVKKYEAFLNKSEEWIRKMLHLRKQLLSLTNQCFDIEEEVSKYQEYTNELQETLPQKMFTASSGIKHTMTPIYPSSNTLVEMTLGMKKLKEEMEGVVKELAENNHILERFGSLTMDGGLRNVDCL
Experimental: Test for the Inhibition of TBK1
(§1) The kinase assay is performed as 384-well flashplate assay (for example for Topcount measurement).
0.6 nM TANK binding kinase (TBK1), 800 nM biotinylated MELK-derived peptide (biotin-Ah-Ah-[…]) and 10 μM ATP (spiked with 0.25 μCi of ^33P-ATP/well) are incubated at 30° C. for 120 min in a total volume of 50 μl (10 mM MOPS, 10 mM Mg acetate, 0.1 mM EGTA, 1 mM DTT, 0.02% of Brij35, 0.1% of BSA, pH 7.5) with or without test compound. The reaction is stopped with 25 μl of 200 mM EDTA. After 30 min at room temperature, the liquid is removed, and each well is washed three times with 100 μl of 0.9% sodium chloride solution. Non-specific reaction is measured in the presence of 100 nM staurosporine. The radioactivity is measured in a Topcount (PerkinElmer). The results (for example IC50 values) are calculated using program tools provided by the IT Department (for example Assay-Explorer, Symyx). Cell Test

[2] = biological target: T2, IKKε (Homo sapiens, UniProt Q14164); experiment: IKKε kinase assay (384-well flashplate assay); assay type: biochemical; details: 10 μM ATP, 1 nM IKKε; read-out: IKKε enzyme assay IC50
T2 sequence (Q14164 1-716): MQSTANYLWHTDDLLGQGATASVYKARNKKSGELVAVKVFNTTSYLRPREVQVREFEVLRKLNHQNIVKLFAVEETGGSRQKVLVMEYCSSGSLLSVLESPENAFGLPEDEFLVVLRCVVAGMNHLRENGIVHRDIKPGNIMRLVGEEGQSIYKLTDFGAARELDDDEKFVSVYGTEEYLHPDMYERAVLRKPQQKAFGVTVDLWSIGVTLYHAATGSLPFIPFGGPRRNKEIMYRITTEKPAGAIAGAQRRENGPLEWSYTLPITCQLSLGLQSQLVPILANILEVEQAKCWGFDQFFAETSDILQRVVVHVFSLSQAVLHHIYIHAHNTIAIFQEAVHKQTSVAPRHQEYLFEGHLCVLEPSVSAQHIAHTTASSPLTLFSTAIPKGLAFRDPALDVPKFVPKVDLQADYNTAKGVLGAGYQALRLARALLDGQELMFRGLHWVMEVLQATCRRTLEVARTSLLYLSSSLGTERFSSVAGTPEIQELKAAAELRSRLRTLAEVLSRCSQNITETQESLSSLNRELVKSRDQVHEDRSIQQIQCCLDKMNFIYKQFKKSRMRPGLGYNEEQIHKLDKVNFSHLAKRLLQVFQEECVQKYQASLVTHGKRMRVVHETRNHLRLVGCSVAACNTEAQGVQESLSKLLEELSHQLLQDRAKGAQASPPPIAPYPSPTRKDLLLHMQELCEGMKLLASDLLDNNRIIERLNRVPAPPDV
Experimental: Test for the Inhibition of IKKε
IKKε—Kinase Assay (IKKepsilon)
as §1
1 nM IKKε, 800 nM biotinylated IκKα(19-42) peptide (Biotin-C6-C6-[…]) and 10 μM ATP (spiked with 0.3 μCi of ^33P-ATP/well) are incubated at 30° C. for 2 hours in a total volume of 50 μl (10 mM MOPS, 10 mM Mg acetate, 0.1 mM EGTA, 1 mM dithiothreitol, 0.02% of Brij35, 0.1% of BSA, 0.1% of BioStab, pH 7.5) with or without test compound. The reaction is stopped using 25 μl of 200 mM EDTA. After 30 min at room temperature, the liquid is removed, and each well is washed three times with 100 μl of 0.9% sodium chloride solution. Non-specific reaction is determined in the presence of 3 μM MSC2119074 (BX-795). The radioactivity is measured using a Topcount (Perkin Elmer). The results (for example IC50 values) are calculated using program tools provided by the IT Department (for example AssayExplorer, Symyx).

| SMILES | IC50 [1] [nM] | IC50 [2] [nM] |
| --- | --- | --- |
| Cn1cc(-c2cnc3[nH]cc(-c4ccc(OC5COC5)c(C#N)c4)c3c2)cn1 [Compound A31, 5-[5-(1-methyl-1H-pyrazol-4-yl)-1H-pyrrolo[2,3-b]pyridin-3-yl]-2-(oxetan-3-yloxy)benzonitrile] | < 300 | < 300 |
| Cn1cc(-c2cnc3[nH]cc(-c4ccc(OCC5(C)COC5)c(C#N)c4)c3c2)cn1 [Compound A32, 2-(3-methyloxetan-3-ylmethoxy)-5-[5-(1-methyl-1H-pyrazol-4-yl)-1H-pyrrolo[2,3-b]pyridin-3-yl]benzonitrile] | < 300 | < 300 |
| N#Cc1cc(-c2c[nH]c3ncc(-c4cnn(CCN5CCCC5)c4)cc23)cnc1OC1CCOCC1 [Compound A33, 5-{5-[1-(2-Pyrrolidin-1-ylethyl)-1H-pyrazol-4-yl]-1H-pyrrolo[2,3-b]pyridin-3-yl}-2-(tetrahydropyran-4-yl-oxy)nicotinonitrile] | < 300 | < 300 |
| N#Cc1cc(-c2c[nH]c3ncc(-c4cnn(C5COC5)c4)cc23)ccc1OC1COC1 [Compound A34, 2-(oxetan-3-yloxy)-5-[5-(1-oxetan-3-yl-1H-pyrazol-4-yl)-1H-pyrrolo-[2,3-b]pyridin-3-yl]benzonitrile] | < 300 | < 300 |
| CC1(COc2ccc(-c3c[nH]c4ncc(-c5cnn(C6COC6)c5)cc34)cc2C#N)COC1 [Compound A35, 2-(3-methyloxetan-3-ylmethoxy)-5-[5-(1-oxetan-3-yl-1H-pyrazol-4-yl)-1H-pyrrolo[2,3-b]-pyridin-3-yl]benzonitrile] | < 300 | < 300 |
| CC1(COc2ccc(-c3c[nH]c4ncc(-c5cn[nH]c5)cc34)cc2C#N)COC1 [Compound A36, 2-(3-methyloxetan-3-ylmethoxy)-5-[5-(1H-pyrazol-4-yl)-1H-pyrrolo[2,3-b]pyridin-3-yl]benzonitrile] | < 300 | < 300 |
| N#Cc1cc(-c2c[nH]c3ncc(-c4cnn(C5COC5)c4)cc23)cnc1OC1CCOCC1 [Compound A37, 5-[5-(1-Oxetan-3-yl-1H-pyrazol-4-yl)-1H-pyrrolo-[2,3-b]pyridin-3-yl]-2-(tetrahydropyran-4-yloxy)-nicotinonitrile] | < 300 | < 300 |
| COCCn1cc(-c2cnc3[nH]cc(-c4cnc(OC5CCOCC5)c(C#N)c4)c3c2)cn1 [Compound A38, 5-{5-[1-(2-Methoxyethyl)-1H-pyrazol-4-yl]-1H-pyrrolo-[2,3-b]pyridin-3-yl}-2-(tetrahydropyran-4-yloxy)-nicotinonitrile] | < 300 | < 300 |
